Data from US7598234B2, “Steroid derived antibiotics” (Brigham Young University, priority 1998, dated 2009).
≈ marks a conversion by molar mass, not a printed value. Values belong to the compound of their own block, whether it stands above or below them.

Assays:
[1] = system: Staphylococcus aureus ATCC 25923; experiment: MIC and MBC measurement with Staphylococcus aureus ATCC 25923; type: cell-based; conditions: for MIC (MIC^a): Table 16, S. aureus (ATTC 25923)
From the text: (§1) General: Microorganisms. Reference strains were purchased from the American Type Culture Collection (Rockville, Md.) or Bactrol disks from Difeo Laboratories (Detroit, Mich.). The following specific ATCC strains were used: 10798 Escherichia coli, 25922 Escherichia coli, 13883 Klebsiella pneumoniae, 27853 Pseudomonas aeruginosa, 14028 Salmonella typhimurium, 29212 Enterococcus faecalis, 25923 Staphylococcus aureus, 19615 Streptococcus pyogenes, and 90028 Candida albicans. Bacterial strains were maintained on Mueller-Hinton agar plates, and Candida albicans was maintained on Sabouraud Dextrose agar plates.
(§2) Tryptic soy broth (TSB) was made by dissolving 27.5 grams of tryptic soy broth without dextrose (DIFCO Laboratories) in 1 liter of deionized water and sterilizing at 121° C. for 15 minutes. Solid agar (TSA) plates were made by dissolving 6.4 grams of tryptic soy broth and 12 grams of agar (purified grade, Fischer Scientific) in 800 mL of deionized water and sterilizing at 121° C. for 20 minutes. Aliquots (20 mL) of the homogeneous solution were then poured in sterile plastic petri dishes (100×15 mm, Fisher Scientific). Solutions of compounds were made by dissolving the HCl salt of the respective compound into an appropriate amount of deionized and sterilized water followed by microfiltration.
(§3) Aliquots of 1 mL of the suspension were added to test tubes containing 1 mL TSB and incrementally varied concentrations of cholic acid derivatives and/or erythromycin or novobiocin. In the sensitization experiments, erythromycin or novobiocin were added 15 minutes later than the cholic acid derivatives. The samples were subjected to stationary incubation at 37° C. for 24 hours. Sample turbidity was determined by measuring absorption at 760 nm (HP 8453 UV-Visible Chemstation, Hewlett Packard). Additionally, an alliquot from each of the samples showing no measurable turbidity was subcultured on TSA plates (alliquots were diluted to provide fewer than 300 CFU). Colonies that grew on the subculture after overnight incubation were counted and the number of CFU/mL in the samples were calculated. The calculated values were compared to the number of CFU/mL in the original inoculum. […]

[2] = system: E. coli (ATCC 25922); experiment: Sensitization to erythromycin, E. coli (ATCC 25922); type: cell-based, Escherichia coli; conditions: for c: concentration required to lower the MIC of erythromycin from 36 to 1 μg/mL: Table 16, E. coli
Protocol: FICs can be performed by checkerboard titrations of compounds in one dimension of a microtiter plate, and of antibiotics in the other dimension, for example. The FIC is calculated by looking at the impact of one antibiotic on the MIC of the other and vice versa. […] Preferably, an FIC of less than 0.5 is obtained for synergism. As used herein, FIC can be determined as follows:
(§4) Aliquots of 1 mL of the suspension were added to test tubes containing 1 mL TSB and incrementally varied concentrations of cholic acid derivatives and/or erythromycin or novobiocin. In the sensitization experiments, erythromycin or novobiocin were added 15 minutes later than the cholic acid derivatives. The samples were subjected to stationary incubation at 37° C. for 24 hours. Sample turbidity was determined by measuring absorption at 760 nm (HP 8453 UV-Visible Chemstation, Hewlett Packard). Additionally, an alliquot from each of the samples showing no measurable turbidity was subcultured on TSA plates (alliquots were diluted to provide fewer than 300 CFU). Colonies that grew on the subculture after overnight incubation were counted and the number of CFU/mL in the samples were calculated. The calculated values were compared to the number of CFU/mL in the original inoculum.
Concentrations of 0.5, 1.0 or 3.0 μg/mL of these antibiotics were used, and the concentrations of the cholic acid derivatives required to inhibit bacterial growth of Gram-negative strains were determined.
(§5) Minimum inhibition concentrations (MIC) and minimum hemolytic concentrations (MHC) were measured as described in Li et al., Antimicrob. Agents. Chemother., 1999, 43, 1347.

[3] = system: E. coli (ATCC 25922); experiment: MIC and MBC measurement with E. coli (ATCC 25922); type: cell-based, Escherichia coli; conditions: for MIC (MIC^b): Table 16, E. coli (ATTC 25922)
From the text: as §1, §2, §3

[4] = system: Candida albicans ATCC 90028; experiment: MIC and MBC measurement with Candida albicans ATCC 90028; type: cell-based; conditions: Table 10
From the text: as §1, §2, §4

[5] = system: Salmonella typhimurium ATCC 14028; experiment: MIC and MBC measurement with Salmonella typhimurium ATCC 14028; type: cell-based; conditions: Table 10
From the text: as §1, §2, §4

[6] = system: Enterococcus faecalis ATCC 29212; experiment: MIC and MBC measurement with Enterococcus faecalis ATCC 29212; type: cell-based; conditions: Table 10
From the text: as §1, §2, §4

[7] = system: Pseudomonas aeruginosa (ATCC 27853); experiment: MIC and MBC measurement with Pseudomonas aeruginosa (ATCC 27853); type: cell-based; conditions: Table 10; Pseudomonas aeruginosa ATCC 27853
From the text: as §1, §2, §4

[8] = system: Streptococcus pyrogenes ATCC 19615; experiment: MIC and MBC measurement with Streptococcus pyogenes ATCC 19615; type: cell-based; conditions: Table 10
From the text: as §1, §2, §4

[9] = system: Pseudomonas aeruginosa (ATCC 27853); experiment: Sensitization to erythromycin, Pseudomonas aeruginosa (ATCC 27853); type: cell-based; conditions: Table 11, Pseudomonas aeruginosa ATCC 27853
Protocol: Alternatively, “fractional inhibitory concentration (FIC)” is also useful for determination of synergy between the compounds of the invention, or the compounds in combination with known antibiotics. FICs can be performed by checkerboard titrations of compounds in one dimension of a microtiter plate, and of antibiotics in the other dimension, for example. The FIC is calculated by looking at the impact of one antibiotic on the MIC of the other and vice versa. […] Preferably, an FIC of less than 0.5 is obtained for synergism. As used herein, FIC can be determined as follows:
as §3
To measure permeabilization, the FIC values for compounds 1, 2, 5, 106, 10, 112, 133, and 134 with erythromycin, novobiocin, and rifampicin were determined. Concentrations of 0.5, 1.0 or 3.0 μg/mL of these antibiotics were used, and the concentrations of the cholic acid derivatives required to inhibit bacterial growth of Gram-negative strains were determined.

[10] = system: Klebsiella pneumonia ATCC 13883; experiment: MIC and MBC measurement with Klebsiella pneumoniae ATCC 13883; type: cell-based; conditions: Table 10
From the text: as §1, §2, §4

[11] = Protocol: as §5
[12] = system: E. coli (ATCC 10798); experiment: MIC and MBC measurement with E. coli (ATCC 10798); type: cell-based, Escherichia coli; conditions: FIG. 5; strain not named
From the text: as §1, §2, §4

[13] = Table 10, Staphylococcus aureus ATCC 25923
[14] = Table 10, Escherichia coli ATCC 25922

- MIC (MIC^a) [1]: 1.8 µg/mL (≈ 2.6 µM)
- MIC (MIC^b) [3]: 1.0 µg/mL (≈ 1.45 µM)
Structure (SMILES): CCCCCCCCOC(=O)CC[C@@H](C)[C@H]1CC[C@H]2[C@@H]3[C@H](OC(=O)CN)C[C@@H]4C[C@H](OC(=O)CN)CC[C@]4(C)[C@H]3C[C@H](OC(=O)CN)[C@]12C [Compound 341]
- c: concentration required to lower the MIC of erythromycin from 36 to 1 μg/mL [2]: 0.7 µg/mL

Structure (SMILES): CCCCCCCCNCCC[C@@H](C)[C@H]1CC[C@H]2[C@@H]3[C@H](OCCCN)C[C@@H]4C[C@H](OCCCN)CC[C@]4(C)[C@H]3C[C@H](OCCCN)[C@]12C [Compound 133]
- MBC [1, 13]: 2.0 µg/mL (≈ 2.95 µM)
- MIC [1, 13]: 0.4 µg/mL (≈ 0.591 µM)
- MBC [4]: 45 µg/mL (≈ 66.5 µM)
- MIC [4]: 31 µg/mL (≈ 45.8 µM)
- FIC ([2]; Table 11, Escherichia coli ATCC 25922, erythromycin (by order)): 0.42
- concentration required to inhibit bacterial growth with antibiotic ([2]; Table 11, Escherichia coli ATCC 25922, erythromycin (by order) at 0.5, 1.0 or 3.0 μg/mL): 1.2 µg/mL
- MBC [5]: 6.7 µg/mL (≈ 9.89 µM)
- MIC [5]: 2.6 µg/mL (≈ 3.84 µM)
- MBC [6]: 5.5 µg/mL (≈ 8.12 µM)
- MIC [6]: 3.1 µg/mL (≈ 4.58 µM)
- MBC [7]: 3.2 µg/mL (≈ 4.73 µM)
- MIC [7]: 2.0 µg/mL (≈ 2.95 µM)
- MBC [8]: 2.9 µg/mL (≈ 4.28 µM)
- MIC [8]: 2.3 µg/mL (≈ 3.4 µM)
- FIC ([9]; erythromycin (by order)): 0.21
- concentration required to inhibit bacterial growth with antibiotic ([9]; erythromycin (by order) at 0.5, 1.0 or 3.0 μg/mL): 0.35 µg/mL
- MBC [10]: 5.8 µg/mL (≈ 8.57 µM)
- MIC [10]: 2.6 µg/mL (≈ 3.84 µM)
- MHC [11]: 29 µg/mL
- MBC [3, 14]: 3.0 µg/mL (≈ 4.43 µM)
- MIC [3, 14]: 3.0 µg/mL (≈ 4.43 µM)
- MIC (in words) [12]: very low

- MIC (MIC^a) [1]: 1.2 µg/mL (≈ 1.55 µM)
- MIC (MIC^b) [3]: 3.5 µg/mL (≈ 4.51 µM)
Structure (SMILES): CCCCCCCCOC(=O)CC[C@@H](C)[C@H]1CC[C@H]2[C@@H]3[C@H](OC(=O)CCCN)C[C@@H]4C[C@H](OC(=O)CCCN)CC[C@]4(C)[C@H]3C[C@H](OC(=O)CCCN)[C@]12C [Compound 343]
- c: concentration required to lower the MIC of erythromycin from 36 to 1 μg/mL [2]: 3.5 µg/mL
